Laboratory results: PubChem BioAssay AID248 (DTP/NCI, 2004)
Inconclusive results and toxic doses are left out. Rule as the data show it: active = T/C of 150% or more; inactive = T/C below 125%.

Test system: L1210 leukemia ip in BDF1 mice, survival T/C
Assay: NCI In Vivo Anticancer Drug Screen. Data for tumor model L1210 Leukemia (intraperitoneal) in B6D2F1 (BDF1) mice
Conditions: endpoint: mean survival time, higher = longer survival
In short: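 Transplantable tumor model; survival measured in treated vs vehicle control mice. Value = treated/control.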

[1] = dose: 100.0 mg/kg/injection, schedule: Q01DX009 (ip), vehicle: saline
[2] = dose: 200.0 mg/kg/injection, schedule: Q01DX009 (ip), vehicle: saline
[3] = dose: 100.0 mg/kg/injection, schedule: Q04DX003 (ip), vehicle: Klucel (hydroxypropylcellulose) (HPC)
[4] = dose: 200.0 mg/kg/injection, schedule: Q04DX003 (ip), vehicle: Klucel (hydroxypropylcellulose) (HPC)
[5] = dose: 400.0 mg/kg/injection, schedule: Q04DX003 (ip), vehicle: Klucel (hydroxypropylcellulose) (HPC)
[6] = dose: 100.0 mg/kg/injection, schedule: Q01DX001 (ip), vehicle: saline
[7] = dose: 200.0 mg/kg/injection, schedule: Q01DX001 (ip), vehicle: saline
[8] = dose: 400.0 mg/kg/injection, schedule: Q01DX001 (ip), vehicle: saline
[9] = dose: 25.0 mg/kg/injection, schedule: Q01DX009 (ip), vehicle: saline
[10] = dose: 50.0 mg/kg/injection, schedule: Q01DX009 (ip), vehicle: saline
[11] = dose: 100.0 mg/kg/injection, schedule: Q01DX009 (ip), vehicle: Klucel (hydroxypropylcellulose) (HPC)
[12] = dose: 200.0 mg/kg/injection, schedule: Q01DX009 (ip), vehicle: Klucel (hydroxypropylcellulose) (HPC)
[13] = dose: 400.0 mg/kg/injection, schedule: Q01DX009 (ip), vehicle: Klucel (hydroxypropylcellulose) (HPC)
[14] = dose: 100.0 mg/kg/injection, schedule: Q01DX001 (ip), vehicle: saline with Tween-80
[15] = dose: 200.0 mg/kg/injection, schedule: Q01DX001 (ip), vehicle: saline with Tween-80
[16] = dose: 400.0 mg/kg/injection, schedule: Q01DX001 (ip), vehicle: saline with Tween-80
[17] = dose: 100.0 mg/kg/injection, schedule: Q01DX009 (ip), vehicle: saline with Tween-80
[18] = dose: 200.0 mg/kg/injection, schedule: Q01DX009 (ip), vehicle: saline with Tween-80
[19] = dose: 400.0 mg/kg/injection, schedule: Q01DX009 (ip), vehicle: saline with Tween-80

Measured: T/C

CCCCCCCCCCCCCCCC[N+](C)(C)CCCCCCCCCCCCCCCC
inactive: dose: 3.12 mg/kg/injection, schedule: Q03DX003 (ip), vehicle: saline with Tween-80 103 % of control | dose: 6.25 mg/kg/injection, schedule: Q03DX003 (ip), vehicle: saline with Tween-80 100 % of control | dose: 12.5 mg/kg/injection, schedule: Q03DX003 (ip), vehicle: saline with Tween-80 103 % of control | dose: 12.5 mg/kg/injection, schedule: Q04DX003 (ip), vehicle: saline with Tween-80 93 % of control

O=C1c2cccc3cccc(c23)C1(c1ccccc1)c1ccccc1
inactive: [1] 100 % of control | [2] 100 % of control | dose: 400.0 mg/kg/injection, schedule: Q01DX009 (ip), vehicle: saline 111 % of control

O=S(=O)(F)c1ccc(-c2cc(Cl)c3c(Br)cc(Br)cc3n2)cc1
inactive: [3] 100 % of control | [4] 94 % of control | [5] 102 % of control

O=C(OC12CCCCC(CCCC1)O2)c1ccc([N+](=O)[O-])cc1
inactive: [6] 91 % of control | [7] 93 % of control | [8] 98 % of control

CC1CCCCC1C(=O)N1CCCC1 (stereo not drawn)
inactive: dose: 100.0 mg/kg/injection, schedule: Q04DX002 (ip), vehicle: saline 101 % of control | dose: 200.0 mg/kg/injection, schedule: Q04DX002 (ip), vehicle: saline 105 % of control

COc1ccc(C(C)=O)c(OC)c1C
inactive: dose: 100.0 mg/kg/injection, schedule: Q04DX003 (ip), vehicle: saline 95 % of control | dose: 200.0 mg/kg/injection, schedule: Q04DX003 (ip), vehicle: saline 90 % of control | dose: 400.0 mg/kg/injection, schedule: Q04DX003 (ip), vehicle: saline 98 % of control

C=C1[C@@H](C)[C@H]2[C@H](Cc3ccccc3)NC(=O)[C@]23OC(=O)/C=C/[C@H](O)CCC[C@@H](C)C/C=C/[C@H]3[C@@H]1O
inactive: dose: 4.0 mg/kg/injection, schedule: Q04DX002 (ip), vehicle: saline 112 % of control | dose: 8.0 mg/kg/injection, schedule: Q04DX002 (ip), vehicle: saline 98 % of control | dose: 16.0 mg/kg/injection, schedule: Q04DX002 (ip), vehicle: saline 109 % of control | dose: 32.0 mg/kg/injection, schedule: Q04DX002 (ip), vehicle: saline 91 % of control

CC(C)N(C(=S)SC(=S)N(C(C)C)C(C)C)C(C)C
inactive: dose: 50.0 mg/kg/injection, schedule: Q04DX003 (ip), vehicle: Klucel (hydroxypropylcellulose) (HPC) 93 % of control | [3] 90 % of control | [4] 96 % of control

Clc1nc2ccccc2nc1Cl
inactive: dose: 12.5 mg/kg/injection, schedule: Q04DX003 (sc), vehicle: olive oil, sesame oil, peanut oil 98 % of control | dose: 25.0 mg/kg/injection, schedule: Q04DX003 (sc), vehicle: olive oil, sesame oil, peanut oil 109 % of control

C1CCC2(CC1)CN2
inactive: [9] 103 % of control | [10] 100 % of control | [6] 97 % of control | [1] 104 % of control

O=C(/C=C/c1ccc2c(c1)OCO2)/C=C/c1ccc2c(c1)OCO2
inactive: [9] 89 % of control | [10] 88 % of control | [1] 91 % of control | [2] 88 % of control

CCc1ccccc1OS(=O)(=O)c1ccc([N+](=O)[O-])cc1
inactive: [11] 109 % of control | [3] 92 % of control | [12] 102 % of control | [4] 100 % of control | [13] 102 % of control | [5] 100 % of control

N#Cc1c(F)c(F)c(C(F)(F)F)c(F)c1F
inactive: dose: 6.0 mg/kg/injection, schedule: Q01DX009 (ip), vehicle: saline with Tween-80 103 % of control | dose: 12.0 mg/kg/injection, schedule: Q01DX009 (ip), vehicle: saline with Tween-80 104 % of control | dose: 25.0 mg/kg/injection, schedule: Q01DX009 (ip), vehicle: saline with Tween-80 93 % of control | dose: 50.0 mg/kg/injection, schedule: Q01DX009 (ip), vehicle: other 103 % of control

COC(=O)c1ccccc1N=Nc1ccc(O)c(C(C)C)c1
inactive: dose: 25.0 mg/kg/injection, schedule: Q01DX009 (ip), vehicle: Klucel (hydroxypropylcellulose) (HPC) 98 % of control | dose: 50.0 mg/kg/injection, schedule: Q01DX009 (ip), vehicle: Klucel (hydroxypropylcellulose) (HPC) 98 % of control | [3] 97 % of control | [4] 100 % of control | [5] 98 % of control

CN(C=O)c1cc([N+](=O)[O-])ccc1OCc1ccccc1
inactive: dose: 50.0 mg/kg/injection, schedule: Q01DX001 (ip), vehicle: saline 100 % of control | [6] 96 % of control | [7] 92 % of control | [8] 94 % of control

O=C1N/C(=N\OCCc2ccccc2)CC(NOCCc2ccccc2)N1 (stereo not drawn)
inactive: dose: 100.0 mg/kg/injection, schedule: Q04DX003 (ip), vehicle: saline with Tween-80 94 % of control | dose: 200.0 mg/kg/injection, schedule: Q04DX003 (ip), vehicle: saline with Tween-80 94 % of control | dose: 400.0 mg/kg/injection, schedule: Q04DX003 (ip), vehicle: saline with Tween-80 97 % of control

CN(C)N=Nc1ccc(C(=O)Oc2ccc3c(c2)CCC2C3CCC3(C)C(=O)CCC23)cc1 (stereo not drawn)
inactive: [11] 90 % of control | [12] 92 % of control | [13] 88 % of control

Cc1nnc2c([N+](=O)[O-])cccn12
inactive: [6] 98 % of control | [7] 103 % of control

Cc1c2c(cc3c1CCC1(C)C3=CCC1C(C)CCC(C)C(C)C)CCCC2 (stereo not drawn)
inactive: [14] 93 % of control | [15] 95 % of control | [16] 91 % of control

O=C(Nc1ccc(-c2nc3nc[nH]c(=O)c3[nH]2)cc1)c1cccc(S(=O)(=O)F)c1
inactive: [14] 96 % of control | [15] 96 % of control | [16] 92 % of control

CCC1C(CC)N1S(=O)(=O)c1ccccc1 (stereo not drawn)
inactive: dose: 100.0 mg/kg/injection, schedule: Q04DX002 (ip), vehicle: saline with Tween-80 100 % of control | dose: 200.0 mg/kg/injection, schedule: Q04DX002 (ip), vehicle: saline with Tween-80 103 % of control

CN1CCC=C(CN2c3ccccc3Sc3ccc(Cl)cc32)C1
inactive: dose: 12.5 mg/kg/injection, schedule: Q01DX009 (ip), vehicle: saline 119 % of control | dose: 12.5 mg/kg/injection, schedule: Q04DX003 (ip), vehicle: saline 101 % of control | dose: 16.5 mg/kg/injection, schedule: Q04DX003 (ip), vehicle: saline 98 % of control | [9] 113 % of control | dose: 25.0 mg/kg/injection, schedule: Q04DX003 (ip), vehicle: saline 105 % of control | dose: 37.5 mg/kg/injection, schedule: Q04DX003 (ip), vehicle: saline 105 % of control | [10] 114 % of control | dose: 50.0 mg/kg/injection, schedule: Q04DX003 (ip), vehicle: saline 110 % of control

S=C(Nc1ccccc1)N1CCN2CCCCC2C1 (stereo not drawn)
inactive: dose: 75.0 mg/kg/injection, schedule: Q01DX001 (ip), vehicle: acetone 100 % of control | dose: 150.0 mg/kg/injection, schedule: Q01DX001 (ip), vehicle: acetone 107 % of control | dose: 300.0 mg/kg/injection, schedule: Q01DX001 (ip), vehicle: acetone 92 % of control

CCOC(=O)c1ccc(=O)n(C(C)C)c1
inactive: [11] 104 % of control | [12] 98 % of control | [13] 102 % of control

C/C=C\c1ccc(OCCOC(=O)Nc2c(C)cccc2C)c(OC)c1
inactive: [17] 92 % of control | [18] 89 % of control | [19] 87 % of control

Cc1ccc(S(=O)(=O)OC2C(O)OCC3OC(C)(C)OC32)cc1 (stereo not drawn)
inactive: [17] 95 % of control | [18] 88 % of control | [19] 88 % of control

CNc1nnnn1-c1ccccc1C
inactive: dose: 100.0 mg/kg/injection, schedule: Q01DX001 (ip), vehicle: Klucel (hydroxypropylcellulose) (HPC) 93 % of control | dose: 200.0 mg/kg/injection, schedule: Q01DX001 (ip), vehicle: Klucel (hydroxypropylcellulose) (HPC) 98 % of control | dose: 400.0 mg/kg/injection, schedule: Q01DX001 (ip), vehicle: Klucel (hydroxypropylcellulose) (HPC) 105 % of control
